Experimental data: patent publication US20100267561A1, “HERBICIDAL PYRIDAZINONE DERIVATIVES” (priority 2007, published 2010)

Columns and labels:
Experiment in all cases: Test E pre-/postemergence plant response
Format in all cases: in vivo
[1] = test system: goosegrass (Eleusine indica); details: scale 0 to 100
Summary of the method: (§1)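 Plants scored visually versus controls on a 0–100 scale (100 = complete control) 14 to 21 days after treatment in the greenhouse. Test chemicals in a surfactant-containing non-phytotoxic solvent were applied to soil preemergence or to 1- to 4-leaf plants, 2–18 cm tall.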

[2] = test system: common chickweed (Stellaria media); details: Postemergence, scale 0 to 100
Summary of the method: as §1

[3] = test system: naked crabgrass (Digitaria nuda); details: scale 0 to 100
Summary of the method: as §1

[4] = test system: tropical (T.) spiderwort (Commelina benghalensis); details: scale 0 to 100
Summary of the method: as §1

[5] = test system: quackgrass (Elytrigia repens); details: scale 0 to 100
Summary of the method: as §1

[6] = test system: large crabgrass (Digitaria sanguinalis); details: scale 0 to 100
Summary of the method: as §1

[7] = test system: common groundsel (Senecio vulgaris)
Summary of the method: as §1

[8] = test system: common sowthistle (Sonchus oleraceous); details: Postemergence, scale 0 to 100
Summary of the method: as §1

[9] = test system: prickly sida (Sida spinosa); details: Postemergence, scale 0 to 100
Summary of the method: as §1

[10] = test system: Virginia (V.) dayflower (Commelina virginica); details: Postemergence, scale 0 to 100
Summary of the method: as §1

[11] = Postemergence, 8 g ai/ha, scale 0 to 100
[12] = Postemergence, 16 g ai/ha; scale 0 to 100

CCc1cc(-c2ccc(Cl)cc2)nn1-c1c(O)cnn(C)c1=O [Compound 21]
Plant response rating, Goosegrass ([1]; 8 g ai/ha, Preemergence): 95 | Plant response rating, Goosegrass ([1]; 16 g ai/ha, Preemergence): 100 | Plant response rating, Goosegrass ([1]; 31 g ai/ha, Preemergence): 100 | Plant response rating, Goosegrass ([1]; 62 g ai/ha, Preemergence): 100 | Plant response rating, Goosegrass ([1]; Postemergence, 8 g ai/ha): 75 | Plant response rating, Goosegrass ([1]; Postemergence, 16 g ai/ha): 80 | Plant response rating, Goosegrass ([1]; Postemergence, 31 g ai/ha): 90 | Plant response rating, Goosegrass ([1]; Postemergence, 62 g ai/ha): 98 | Plant response rating, Chickweed ([2]; 31 g ai/ha): 0 | Plant response rating, Crabgrass, Naked ([3]; 16 g ai/ha, Preemergence): 95 | Plant response rating, Crabgrass, Naked ([3]; 31 g ai/ha, Preemergence): 100 | Plant response rating, Crabgrass, Naked ([3]; 62 g ai/ha, Preemergence): 100 | Plant response rating, Crabgrass, Naked ([3]; Postemergence, 8 g ai/ha): 80 | Plant response rating, Crabgrass, Naked ([3]; Postemergence, 16 g ai/ha): 90 | Plant response rating, Crabgrass, Naked ([3]; Postemergence, 31 g ai/ha): 98 | Plant response rating, Crabgrass, Naked ([3]; Postemergence, 62 g ai/ha): 100 | Plant response rating, Spiderwort, T. ([4]; 16 g ai/ha, Preemergence): 0 | Plant response rating, Spiderwort, T. ([4]; 31 g ai/ha, Preemergence): 0 | Plant response rating, Spiderwort, T. ([4]; 62 g ai/ha, Preemergence): 0 | Plant response rating, Spiderwort, T. ([4]; Postemergence, 8 g ai/ha): 0 | Plant response rating, Spiderwort, T. ([4]; Postemergence, 16 g ai/ha): 0 | Plant response rating, Spiderwort, T. ([4]; Postemergence, 31 g ai/ha): 0 | Plant response rating, Spiderwort, T. ([4]; Postemergence, 62 g ai/ha): 0 | Plant response rating, Quackgrass ([5]; 16 g ai/ha, Preemergence): 50 | Plant response rating, Quackgrass ([5]; 31 g ai/ha, Preemergence): 90 | Plant response rating, Quackgrass ([5]; 62 g ai/ha, Preemergence): 95 | Plant response rating, Quackgrass ([5]; Postemergence, 8 g ai/ha): 20 | Plant response rating, Quackgrass ([5]; Postemergence, 16 g ai/ha): 35 | Plant response rating, Quackgrass ([5]; Postemergence, 31 g ai/ha): 40 | Plant response rating, Quackgrass ([5]; Postemergence, 62 g ai/ha): 80 | Plant response rating, Crabgrass, Large ([6]; 8 g ai/ha, Preemergence): 65 | Plant response rating, Crabgrass, Large ([6]; 16 g ai/ha, Preemergence): 100 | Plant response rating, Crabgrass, Large ([6]; 31 g ai/ha, Preemergence): 100 | Plant response rating, Crabgrass, Large ([6]; 62 g ai/ha, Preemergence): 100 | Plant response rating, Crabgrass, Large ([6]; Postemergence, 8 g ai/ha): 80 | Plant response rating, Crabgrass, Large ([6]; Postemergence, 16 g ai/ha): 90 | Plant response rating, Crabgrass, Large ([6]; Postemergence, 31 g ai/ha): 95 | Plant response rating, Crabgrass, Large ([6]; Postemergence, 62 g ai/ha): 98 | Plant response rating, Groundsel [7, 11]: 0 | Plant response rating, Groundsel ([7]; Postemergence, 62 g ai/ha; scale 0 to 100): 0

Cc1cc(-c2ccc(Cl)cc2)nn1-c1c(OS(=O)(=O)c2ccccc2)cnn(C)c1=O [Compound 35]
Plant response rating, Goosegrass ([1]; 8 g ai/ha, Preemergence): 20 | Plant response rating, Goosegrass ([1]; 16 g ai/ha, Preemergence): 75 | Plant response rating, Goosegrass ([1]; 31 g ai/ha, Preemergence): 100 | Plant response rating, Goosegrass ([1]; 62 g ai/ha, Preemergence): 100 | Plant response rating, Goosegrass ([1]; Postemergence, 8 g ai/ha): 30 | Plant response rating, Goosegrass ([1]; Postemergence, 16 g ai/ha): 30 | Plant response rating, Goosegrass ([1]; Postemergence, 31 g ai/ha): 40 | Plant response rating, Goosegrass ([1]; Postemergence, 62 g ai/ha): 75 | Plant response rating, Chickweed ([2]; 8 g ai/ha): 0 | Plant response rating, Chickweed ([2]; 16 g ai/ha): 0 | Plant response rating, Chickweed ([2]; 31 g ai/ha): 0 | Plant response rating, Crabgrass, Naked ([3]; 8 g ai/ha, Preemergence): 75 | Plant response rating, Crabgrass, Naked ([3]; 16 g ai/ha, Preemergence): 98 | Plant response rating, Crabgrass, Naked ([3]; 31 g ai/ha, Preemergence): 100 | Plant response rating, Crabgrass, Naked ([3]; 62 g ai/ha, Preemergence): 100 | Plant response rating, Crabgrass, Naked ([3]; Postemergence, 8 g ai/ha): 50 | Plant response rating, Crabgrass, Naked ([3]; Postemergence, 16 g ai/ha): 50 | Plant response rating, Crabgrass, Naked ([3]; Postemergence, 31 g ai/ha): 95 | Plant response rating, Crabgrass, Naked ([3]; Postemergence, 62 g ai/ha): 95 | Plant response rating, Spiderwort, T. ([4]; 16 g ai/ha, Preemergence): 0 | Plant response rating, Spiderwort, T. ([4]; 31 g ai/ha, Preemergence): 0 | Plant response rating, Spiderwort, T. ([4]; 62 g ai/ha, Preemergence): 0 | Plant response rating, Spiderwort, T. ([4]; Postemergence, 8 g ai/ha): 0 | Plant response rating, Spiderwort, T. ([4]; Postemergence, 16 g ai/ha): 0 | Plant response rating, Spiderwort, T. ([4]; Postemergence, 31 g ai/ha): 0 | Plant response rating, Spiderwort, T. ([4]; Postemergence, 62 g ai/ha): 0 | Plant response rating, Quackgrass ([5]; 16 g ai/ha, Preemergence): 20 | Plant response rating, Quackgrass ([5]; 31 g ai/ha, Preemergence): 40 | Plant response rating, Quackgrass ([5]; 62 g ai/ha, Preemergence): 50 | Plant response rating, Quackgrass ([5]; Postemergence, 8 g ai/ha): 0 | Plant response rating, Quackgrass ([5]; Postemergence, 16 g ai/ha): 10 | Plant response rating, Quackgrass ([5]; Postemergence, 31 g ai/ha): 30 | Plant response rating, Quackgrass ([5]; Postemergence, 62 g ai/ha): 40 | Plant response rating, Crabgrass, Large ([6]; 8 g ai/ha, Preemergence): 20 | Plant response rating, Crabgrass, Large ([6]; 16 g ai/ha, Preemergence): 20 | Plant response rating, Crabgrass, Large ([6]; 31 g ai/ha, Preemergence): 95 | Plant response rating, Crabgrass, Large ([6]; 62 g ai/ha, Preemergence): 100 | Plant response rating, Crabgrass, Large ([6]; Postemergence, 8 g ai/ha): 50 | Plant response rating, Crabgrass, Large ([6]; Postemergence, 16 g ai/ha): 60 | Plant response rating, Crabgrass, Large ([6]; Postemergence, 31 g ai/ha): 75 | Plant response rating, Crabgrass, Large ([6]; Postemergence, 62 g ai/ha): 80 | Plant response rating, Groundsel [7, 11]: 0 | Plant response rating, Groundsel [7, 12]: 0

Cc1cc(-c2ccc(Cl)cc2)nn1-c1c(OC(=O)Oc2ccccc2)cnn(C)c1=O [Compound 54]
Plant response rating, Goosegrass ([1]; 8 g ai/ha, Postemergence): 0 | Plant response rating, Goosegrass ([1]; Postemergence, 16 g ai/ha): 0 | Plant response rating, Goosegrass ([1]; Postemergence, 31 g ai/ha): 50 | Plant response rating, Goosegrass ([1]; Postemergence, 62 g ai/ha): 95 | Plant response rating, Sowthistle ([8]; 8 g ai/ha): 0 | Plant response rating, Sowthistle ([8]; 16 g ai/ha): 0 | Plant response rating, Sowthistle ([8]; 31 g ai/ha): 0 | Plant response rating, Sowthistle ([8]; 62 g ai/ha): 0 | Plant response rating, Crabgrass, Naked ([3]; 8 g ai/ha, Postemergence): 10 | Plant response rating, Crabgrass, Naked ([3]; Postemergence, 16 g ai/ha): 85 | Plant response rating, Crabgrass, Naked ([3]; Postemergence, 31 g ai/ha): 90 | Plant response rating, Crabgrass, Naked ([3]; Postemergence, 62 g ai/ha): 90 | Plant response rating, Prickly Sida ([9]; 8 g ai/ha): 0 | Plant response rating, Prickly Sida ([9]; 16 g ai/ha): 0 | Plant response rating, Prickly Sida ([9]; 31 g ai/ha): 0 | Plant response rating, Prickly Sida ([9]; 62 g ai/ha): 0 | Plant response rating, Quackgrass ([5]; 8 g ai/ha, Postemergence): 0 | Plant response rating, Quackgrass ([5]; Postemergence, 16 g ai/ha): 0 | Plant response rating, Quackgrass ([5]; Postemergence, 31 g ai/ha): 0 | Plant response rating, Quackgrass ([5]; Postemergence, 62 g ai/ha): 35 | Plant response rating, Crabgrass, Large ([6]; 8 g ai/ha, Postemergence): 25 | Plant response rating, Crabgrass, Large ([6]; Postemergence, 16 g ai/ha): 80 | Plant response rating, Crabgrass, Large ([6]; Postemergence, 31 g ai/ha): 95 | Plant response rating, Crabgrass, Large ([6]; Postemergence, 62 g ai/ha): 100 | Plant response rating, Groundsel ([7]; 8 g ai/ha, Postemergence, scale 0 to 100): 0 | Plant response rating, Groundsel [7, 12]: 0 | Plant response rating, Groundsel ([7]; Postemergence, 31 g ai/ha; scale 0 to 100): 0 | Plant response rating, Dayflower, V. ([10]; 8 g ai/ha): 0 | Plant response rating, Dayflower, V. ([10]; 16 g ai/ha): 0 | Plant response rating, Dayflower, V. ([10]; 31 g ai/ha): 0 | Plant response rating, Dayflower, V. ([10]; 62 g ai/ha): 0
